Data from publication PMC5535261 (Journal of Medicinal Chemistry, 2017).
≈ marks a conversion by molar mass, not a printed value.

Key:
[1] = test system: P. berghei-infected female Swiss Webster mice; settings: oral; for mouse survival extended compared to vehicle-treated control animals: one or two daily doses of 4 mg/kg; for 50% curative dose (PD50): free bases, 4 daily doses, estimated from dose–efficacy study (Table 3)
[2] = Mouse liver microsome stability; settings: for microsomal CLint / half-life: mouse, microsomes; for half-life / T1/2 (min) no NADPH: mouse liver microsomes
physchem = settings: pH 7.4
[3] = test system: W2 P. falciparum parasites; assay: Plasmodium falciparum growth inhibition assay; settings: 12f vs 2f
[4] = test system: similar models (P. berghei-infected mice); settings: single dose 20 mg/kg; cited from earlier work
[5] = T1/2 (min), half-life when incubated with mouse liver microsomes

| SMILES | microsomal CLint [2] | half-life [2, 5] | T1/2 (min) no NADPH ([2]; no NADPH) | other results |
| --- | --- | --- | --- | --- |
| NCCNC(=O)C[C@@H]1CCC[C@]2(C1)OOC1(O2)C2CC3CC(C2)CC1C3 (stereo partly drawn) [12c] | 8.2 µL/min/mg | 1.41 h |  | mouse survival extended compared to vehicle-treated control animals [1]: 3 to 6 days; half-life ([2]; T1/2 (min) no NADPH, no NADPH): 2.27 h |
| NC(=O)CNC(=O)C[C@H]1CC[C@]2(CC1)OO[C@]1(O2)C2CC3CC(C2)CC1C3 [2b, reference compound] |  |  | stable |  |
| CC(C)(N)CNC(=O)C[C@@H]1CCC[C@]2(C1)OOC1(O2)C2CC3CC(C2)CC1C3 (stereo partly drawn) [12a] | 4.1 µL/min/mg | 2.82 h | stable | 50% curative dose (PD50) [1]: ~6 mg kg^–1 day^–1; solubility kinetic (physchem): 429 µM (≈ 168 µg/mL) |
| NC1CCN(C(=O)C[C@H]2CC[C@]3(CC2)OO[C@]2(O3)C3CC4CC(C3)CC2C4)CC1 [2i, reference compound] |  |  | stable |  |
| NC(=O)CNC(=O)C[C@@H]1CCC[C@]2(C1)OOC1(O2)C2CC3CC(C2)CC1C3 (stereo partly drawn) [12b] | 18.6 µL/min/mg | 0.622 h | stable |  |
| O=C(C[C@@H]1CCC[C@]2(C1)OOC1(O2)C2CC3CC(C2)CC1C3)N1CCOCC1 (stereo partly drawn) [12f] |  |  |  | fold more potent than cis-4″ regioisomer 2f (EC50, W2) [3]: 3 fold |
| CC(C)(N)CNC(=O)C[C@H]1CC[C@]2(CC1)OO[C@]1(O2)C2CC3CC(C2)CC1C3 [2a, arterolane, reference compound] |  |  | stable | 50% curative dose (PD50) [1]: ~4 mg kg^–1 day^–1; solubility kinetic (physchem): 433 µM (≈ 170 µg/mL) |
| O=C(C[C@@H]1CCC[C@]2(C1)OOC1(O2)C2CC3CC(C2)CC1C3)N1CCNCC1 (stereo partly drawn) [12g] | 27.2 µL/min/mg | 0.425 h | stable |  |
| CC(C)(CN)CNC(=O)C[C@H]1CC[C@]2(CC1)OO[C@]1(O2)C2CC3CC(C2)CC1C3 [2d, reference compound] |  |  | stable |  |
| CC(C)(CN)CNC(=O)C[C@@H]1CCC[C@]2(C1)OOC1(O2)C2CC3CC(C2)CC1C3 (stereo partly drawn) [12d] | 10.8 µL/min/mg | 1.07 h | stable |  |
| NC1CCN(C(=O)C[C@@H]2CCC[C@]3(C2)OOC2(O3)C3CC4CC(C3)CC2C4)CC1 (stereo partly drawn) [12i] | 8.2 µL/min/mg | 1.41 h | stable | mouse survival extended compared to vehicle-treated control animals [1]: 3 to 6 days |
| c1cc([C@H]2CC[C@]3(CC2)OO[C@]2(O3)C3CC4CC(C3)CC2C4)ccc1OCCN1CCOCC1 [compound 3, artefenomel] |  |  |  | single-dose efficacy [4]: single-dose cures |
